Test results taken from patent US20180311611A1, “ABSORBENT FOR THE SELECTIVE REMOVAL OF HYDROGEN SULFIDE” (BASF SE, priority 2015, published 2018).
Like-named read-outs stand apart in the source and are kept apart here.

Assays:
[1] = pKA determination of amines by pH at half-equivalence with hydrochloric acid; settings: for pKA (120° C.) / pKA (50° C.): aqueous solution, amine 0.01 mol/kg; for ΔpKA (120 − 50° C.): difference between 120° C. and 50° C.
From the text: (§1) The pKA values are suitably determined in aqueous solution with an amine concentration of 0.01 mol/kg at the given temperature by determining the pH at the point of half-equivalence of the dissociation stage under consideration by means of addition of hydrochloric acid (1st dissociation stage 0.005 mol/kg; 2nd dissociation stage: 0.015 mol/kg; 3rd dissociation stage: 0.025 mol/kg). Measurement is accomplished using a thermostated closed jacketed vessel in which the liquid was blanketed with nitrogen. The Hamilton Polylite Plus 120 pH electrode was used, which was calibrated with pH 7 and pH 12 buffer solutions.

From the text for physchem: as §1

Row | Compound | pKa (physchem; aqueous solution of the amine) | pKA (120° C.) ([1]; dissociation stage pKA1) | ΔpKA (120 − 50° C.) ([1]; dissociation stage pKA1) | pKA (50° C.) ([1]; dissociation stage pKA2) | pKA (120° C.) ([1]; dissociation stage pKA2) | ΔpKA (120 − 50° C.) ([1]; dissociation stage pKA2) | pKA (50° C.) ([1]; dissociation stage pKA3) | pKA (120° C.) ([1]; dissociation stage pKA3) | ΔpKA (120 − 50° C.) ([1]; dissociation stage pKA3) | pKa (physchem) | pKA (50° C.) ([1]; dissociation stage pKA1)
1 | CN(C)CCCN(CCO)CCCN(C)C [Hydroxyethylbis(dimethylaminopropyl)amine] | 10.1 | 8.63 | 1.51 | 10.13 | 8.62 | 1.51 | 10.12 | 8.69 | 1.43 |  | 
2 | CN(C)C1CCCCC1 [Cyclohexyl-N,N-dimethylamine] |  |  |  |  |  |  |  |  |  | 10 | 
3 | CN(C)C1CCC(N(C)C)CC1 (stereo not shown) [1,4-Bis(dimethylamino)cyclohexane] | 9.8 | 8.17 | 1.63 | 8.01 | 6.67 | 1.34 |  |  |  |  | 
4 | CN(C)CCCN1CN(CCCN(C)C)CN(CCCN(C)C)C1 [N,N,N′,N′,N″,N″-Hexamethyl-1,3,5-triazine-1,3,5(2H,4H,6H)-tripropanamine] | 11.2 | 9.78 | 1.59 |  | 9.35 | 1.88 | 10.45 | 7.97 | 2.48 |  | 11.37
